According to patent US8143003B2, “Method for detecting oral squamous-cell carcinoma” (Fujifilm Corporation, priority 2008, dated 2012):
Entries after “also recorded” stand apart in the source; their conditions may differ.

How the values were obtained:
Assay type in all cases: cell-based
[1] = system: DKFZP564J gene expression in cell lines with decreased expression; test: DKFZP564J gene expression after treatment with 5-aza-dCyd and/or TSA
Procedure: (§1) (A) The expression status of a DKFZP564J gene and a CYP4V2 gene in cell lines in which the expression levels of the aforementioned genes had been decreased, which were treated with 5-aza-dCyd and/or TSA.

[2] = system: CYP4V2 gene expression in cell lines with decreased expression; test: CYP4V2 gene expression after treatment with 5-aza-dCyd and/or TSA
Procedure: as §1

[3] = system: MTNR1A gene expression in oral squamous-cell carcinoma cell lines (TOSCa-50, ZA, and NA); test: Recovery of MTNR1A gene expression by demethylation, examined by RT-PCR
Procedure: (C) MTNR1A expression was recovered by a demethylation treatment performed on cells in which the gene was not expressed. The cells were treated using a 1 μM or 5 μM demethylating reagent 5-aza-dCyd for 5 days and/or using a deacetylation inhibitory agent TSA (100 ng/ml) for 12 hours. GAPDH was used as an internal control.
Specifically, single-stranded cDNA was synthesized from the RNA extracted from each cultured cell line using the SuperScript First-Strand Synthesis System (Invitrogen). Moreover, a glyceraldehyde-3-phosphate dehydrogenase (GAPDH) gene was used as a control.
In order to examine if the suppressed expression of the MTNR1A gene was due to DNA methylation, oral squamous-cell carcinoma cell lines (TOSCa-50, ZA, and NA) that had not expressed the MTNR1A gene were treated with a 1 μM or 5 μM demethylating reagent 5-aza-dCyd for 5 days and/or with a deacetylation inhibitory agent TSA (100 ng/ml) for 12 hours. RNAs were extracted from these cells, and MTNR1A gene expression was then examined by RT-PCR (FIG. 2c).

Row | CYP4V2 gene expression [2] | Compound | DKFZP564J gene expression [1] | MTNR1A gene expression (RT-PCR) ([3]; 1 μM or 5 μM 5-aza-dCyd for 5 days, NA cells not expressing MTNR1A) | MTNR1A gene expression (RT-PCR) ([3]; TSA 100 ng/ml for 12 hours, NA cells)
1 | gene expression was not recovered | Nc1ncn([C@H]2C[C@H](O)[C@@H](CO)O2)c(=O)n1 [5-aza-dCyd, 5-azadeoxycytidine] | gene expression was not recovered | recovers its gene expression; also recorded: possible to recover the expression level of the MTNR1A gene | 
2 |  | CC(/C=C/C(=O)NO)=C\[C@@H](C)C(=O)c1ccc(N(C)C)cc1 [TSA] |  |  | no differences in MTNR1A gene expression
